Source: patent US9951093B2, “Chiral compounds substituted with phosphonic acid ester functions or phosphonic acid functions” (UGISense AG, priority 2006, dated 2018)

System: HIV-1-NL4-3
Assay: p24 ELISA in H9 cells chronically infected with HIV-1-NL4-3 (antisense effect)
Format: cell-based
Conditions: H9 cells chronically infected with HIV-1-NL4-3, 5 days of incubation, p24 GAG ELISA
Method: H9 cells, chronically infected with strain HIV-1-NL4-3 are washed twice with a PBS buffer in order to remove viruses already produced. The cells are incubated in a 96-well plate with 10^4 cells/well, 4 wells per sample, in 200 μl culturing medium with or without a compound according to the invention or Ritonavir, respectively, at a distinct concentration. After 5 days of incubation, 40 μl of the cell suspension are taken from each of the 4 wells and inactivated with 40 μl Nonidet P-40.
The amount of the antigen p24 GAG is determined by a quantitative ELISA assay (Sandwich-ELISA-Biotin-Strepavidin-HRP) according to the standard method of the Institute for Applied Microbiology in Vienna. As a standard, samples with a known amount of p24 are used to investigate the standard calibration curve.
In this context, in the case of stereochemically non-uniform oligomers of the sequence […]-NH2 (SEQ ID NO: 1), a reduction of the amount of p24 of 21% can be observed compared with the untreated sample.

TCGCTGCCAAAGAGT-NH2: stereochemically non-uniform oligomers of the sequence TCGCTGCCAAAGAGT-NH2 (SEQ ID NO: 1), as in EP 1157031 (3'-NH2, stereochemically non-uniform, chemistry not fully specified)
reduction of the amount of p24 compared with the untreated sample: 21%
